# Entries after “also recorded” stand apart in the source; their conditions may differ. Where two headings read alike, the source gives them in different places. No end group written: not given here.
# Experiments:
# [1] = Transmission electron microscopy of aggregates; type: physicochemical
# Method: Peptides were dissolved in appropriate buffer at pH 3.4, 7.4 and 9.1 to reach peptide stock solutions of 100 μM. Each peptide was incubated in an Eppendorf tube during 48 h. One drop (20 μL) of each peptide solution was adsorbed onto glow-discharged carbon coated 200 mesh copper grids. After 2 min, the grids were dried and negatively stained during 45 s with a 2.5% uranyl acetate solution. Grids were blotted, dried, and examined by using a Zeiss 912 Omega (Zeiss, Marly-le-Roi, France) […] or a JEOL 2100 HC (Croissy, France) […].
# [2] = cited from earlier work
# From the text: Then, we have explored the biological effects of the peptide 2, not only on cell survival (in vitro study) but also in pain (in vivo study). […] Our approach consisting in designing a minimalist active ERα17p-derived peptide, the pharmacologically inert KRSKK motif was excluded from our study. […] Regarding phenotypes, a GPER-dependent ...
# [3] = type: physicochemical; settings: for change of intensity of aliphatic proton signals (1H-NMR): 298 K, 65 h, 500 MHz
# Method: ERα17p fibrilization was followed at 298 K by using a NMR spectrometer (Bruker AVANCE III 500 MHz) equipped with a triple resonance (^1H, ^15 N, ^13C) cryoprobe. Each sample (100 μM) was prepared extemporaneously in appropriate buffer at pH 3.4, 7.4 and 9.1. A 10:90 D2O:H2O mixture was added to the buffer to reach a final D2O percentage of 7.5%. The final volume was of 520 μL in a 5 mm tube. 1D proton experiments (eight scans) were carried out over 65 h, with a total of 258 spectra (1 spectrum each 15 min, 8 scan/spectrum). Spectra analysis was carried out with the Bruker Topspin software by focusing between 0.80 and 3.60 ppm aliphatic side-chains region.
# [4] = system: tactile hypersensitivity in the murine CFA model; experiment: von Frey test in Complete Freund's Adjuvant (CFA) inflammatory pain model; type: in vivo, C57BL/6j mice; settings: for 50% paw withdrawal threshold (PWT): seven days after CFA, mean ± SEM, n = 8 mice
# Method: Experiments were performed according to ethical guidelines established by the International Association for the Study of Pain (IASP) and the relevant European legislation (Directive 2010/63/EU). They were also approved by the Auvergne Animal Experiment Ethics Committee, CE2A and the French Ministry of Higher Education and Innovation. Eight-week-old male C57BL/6j mice were purchased from Janvier Laboratories (Le Genest-Saint-Isle, France), housed under standard laboratory conditions (12 h light/dark cycle, temperature of 21 to 22 °C, 55% humidity under specific pathogen free conditions) and acclimatized for a week before testing. Food and water were available ad libitum.
# Design, analysis and reporting were carried out in accordance with the ARRIVE guidelines[56]–[58]. To ensure the methodological quality of the study, Rice et al. recommendations were followed. Animals were randomly divided into eight mice per group. To assess different treatment effects over the same time interval and to avoid, thereby, unverifiable and time-variable environmental influence, treatments were administered following the method of equal blocks. All experiments were performed in a quiet room by the same blinded experimenter. ERα17p and PLMI peptides were dissolved in a saline solution prior to intraperitoneal administration (10 mL/kg).
# A persistent inflammatory pain model was produced by injection under brief anesthesia (2.5% isoflurane inhalation) of Complete Freund's Adjuvant (CFA, 10 µL) on the left ankle joint of mice[60]. CFA consisted of Mycobacterium butyricum (Difco Laboratories, Detroit, USA) dissolved in paraffin oil and saline (0.9% NaCl). The solution was autoclaved 20 min at 120 °C. Behavior tests were performed before and seven days after CFA injection.
# On behavior testing day, the mice were placed individually in Plexiglas compartments (8 cm (L) × 3.5 cm (W) × 8 cm (D)) and on an elevated wire mesh platform to allow access to the ventral surface of the hindpaws, and were allowed to acclimatize for one hour before testing. Von Frey filaments (0.02 to 1.4 g) were applied perpendicularly to the plantar surface of the paw. Paw withdrawal and licking were considered as positive responses. 50% paw withdrawal threshold (PWT) was determined using an adaptation of the Dixon up–down method, as described previously.
# All data were analyzed using the Prism 8 software (GraphPad™ Software Inc., San Diego, CA). Data were tested for normality (Shapiro–Wilk test) and equal variance (Fisher test). For kinetic data, multiple measurements were compared with repeated measures (two-way ANOVA). Post hoc comparisons were performed by the Tukey’s test. […] AUC was expressed as mean ± SEM (g × min). […]
# inflammation and pain = settings: cited from earlier work
# [5] = system: xenografted triple negative breast tumors; settings: 1.5 mg/kg body weight, three times a week for four weeks, mice; cited from earlier work
# [6] = ThT fluorescence kinetics of fibril/aggregate formation; type: physicochemical; settings: ThT 10 μM, mean of triplicate
# Method: Fibrils were detected by measuring the fluorescence intensity of Thioflavin T (ThT)[53]. A plate reader (Fluostar Optima, BMG LabTech, Ortenberg, Germany) and standard 96-wells flat-bottom black microtiter plates (Costar 3792, Sigma Aldrich, Saint-Louis, USA) were used in combination with excitation and emission filters, at 440 and 485 nm, respectively (ThT concentration: 10 μM). Peptide concentrations varied from 10 to 100 μM, at pH 3.4 (0.2 M glycine HCl in water), pH 7.4 (0.2 M KH2PO4 in water, 0.2 M K2HPO4, in water) and pH 9.1 (0.2 M glycine NaOH in water). The microtiter plate was shaken prior to measurements. Fluorescence intensity (arbitrary units, u.a.) was recorded every 10 min, during 40 h. Resulting curves were analyzed by using GraphPad Prism. Data are the means of experiments performed in triplicate.
# GPER = settings: binding within the ligand-binding site of GPER; cited from earlier work
# Method: In physiological conditions (complete serum) and at the concentration of 10 μM, ERα17p triggers membrane-initiated pro-apoptotic events, in both ERα-positive and -negative breast cancer cell lines with, however, a preference for ERα-positive cancer cells. It decreases the ratio Bcl-xl/Bax, increases cleaved caspase-9 and induces a redistribution of actin through a mechanism requiring PI3K, ROCK and p38 MAPK, depending on cell line[21],[22]. Moreover, ERα17p induces a proteasome-dependent decrease of the levels of the G protein-coupled estrogen receptor (GPER), of activated EGFR and ERK1/2 ...
# [7] = system: GPER (WT) MDA-MB-231 cells; experiment: Cell growth by automated cell counting; type: cell-based, human; settings: WT MDA-MB-231, 72 h, increasing concentrations, 2.5% charcoal-stripped FBS, three independent experiments in triplicate
# Method: (§1) MCF-7 (ER + , PR + , […] , GPER +) and HS578T (ER-, PR-, Her2-, GPER +) cells were cultured in RPMI-1640 and DMEM medium (Life Technologies, Courtaboeuf, France), respectively, supplemented with 10% (v/v) fetal bovine serum (FBS), 100 U/mL penicillin and 100 µg/mL streptomycin. MDA-MB-231 triple negative breast cancer cells were obtained from the ATCC (Manassas, VA, USA). Cells were maintained in DMEM/F12 (Dulbecco’s modified Eagle’s medium) with phenol red, supplemented with 5% fetal bovine serum (FBS) and 1% penicillin/streptomycin (Thermo Fisher Scientific, Monza, Italy). Cells were grown in a 37 °C incubator with 5% CO2.
# (§2) Short guide RNA (sgRNA) sequence targeting human GPER was designed using the E-CRISP sgRNA Designer (http://www.e-crisp.org/E-CRISP/) and was cloned into the pSpCas9 (BB)-2A-Puro (PX459) plasmid, as previously described. The GPER sgRNA sequence used to generate the GPER knockout is as followed: sgGPER: 5′-[…]-3′. Next, the vector with sgRNA was transiently transfected into MDA-MB-231 cells using Lipofectamine LTX (Life Technologies, Milan Italy). […]
# (§3) MDA-MB-231 WT and GPER KO cells were seeded in 24-well plates in regular growth medium. […] Cells were counted on day 4 using an automated cell counter (Life Technologies, Milan, Italy), following the manufacturer’s recommendations.
# [8] = system: GPER knockout (KO) MDA-MB-231 cells; experiment: Cell growth by automated cell counting; type: cell-based, human; settings: GPER KO MDA-MB-231, 72 h, increasing concentrations, 2.5% charcoal-stripped FBS, three independent experiments in triplicate
# Method: as §1, §2, §3
# [9] = Solubility as observed when preparing biological assays; settings: culture media; reason for exclusion from biological assays
# [10] = Circular dichroism of the soluble peptide pool over time; type: physicochemical; settings: pH 9.1, peptide 100 μM, 25 °C, between 5 and 22 h
# Method: CD spectra were recorded on a Jasco J-815 apparatus (Lisses, France) using quartz cells (0.1 cm path length, Hellma GmbH, Müllheim, Germany). Each peptide was dissolved (final concentration: 100 μM) in appropriate buffer solution, at pH 9.1. After an equilibration period of 5 min at 25 °C, CD spectra were recorded over the 190 to 260 nm wavelength range. Measurements were carried out at 1 nm intervals. Data points were acquired every 0.5 nm in continuous scanning mode (speed = 20 nm.min^−1, bandwidth = 1 nm). CD spectra were recorded after 0, 5, 22 and 28 h (unit: mean residue ellipticity [θ]MRE, in deg.cm^2.dmol^−1). Acquisitions were carried out using the software Spectra Manager. Recorded data (mean of five scans) were treated with GraphPad Prism. Buffer background was subtracted to avoid buffer and cell contributions.
# [11] = pH 9.1 (glycine NaOH 0.2 M in water), peptide 100 μM, 48 h incubation
compound,measurement,setting,value
PLMIKRSKKNSLALSLT [ERα17p],aggregates seen by TEM,"[1]; pH 3.4, peptide 100 μM, 48 h incubation",no aggregate was detected
same,morphology of aggregates by TEM,"[1]; pH 7.4, peptide 100 μM, 48 h incubation",granulations resembling to a dense network of prefibrillar amyloid oligomers
same,morphology of aggregates by TEM,"[1]; pH 9.1, peptide 100 μM",entanglement network of mature amyloid fibrils
same,length of amyloid fibrils (TEM),"[1]; pH 9.1, peptide 100 μM, 48 h incubation",> 1 μm
same,cellular internalization,[2],poorly internalized
same,change of intensity of aliphatic proton signals (1H-NMR),"[3]; pH 3.4, peptide 100 μM",No significant change
same,total amount of peptide remaining soluble (1H-NMR),[3]; pH 7.4,about 40%
same,change of intensity of aliphatic proton signals (1H-NMR),"[3]; pH 9.1, peptide 100 μM",decay of the proton signals followed by a plateau
same,50% paw withdrawal threshold (PWT),"[4]; 1.25 mg/kg i.p., 45 min",0.141 ± 0.025 g
same,50% paw withdrawal threshold (PWT),"[4]; 2.5 mg/kg i.p., 45 min",0.293 ± 0.055 g
same,calculated EC50 of anti-hyperalgesic action,"[4]; from AUC (0-180 min) of PWT variations, i.p., CFA model, von Frey test",3.7 ± 1.9 mg/kg
same,dose from which anti-inflammatory and analgesic actions are supported,inflammation and pain,≥ 2.5 mg/kg
same,decrease of the size of xenografted triple negative breast tumors,[5],about 50%
same,formation of aggregates (ThT fluorescence),"[6]; pH 3.4 (0.2 M glycine HCl in water), peptide 10-100 μM, 40 h, ex 440/em 485 nm",No aggregation
same,formation of aggregates (ThT fluorescence),"[6]; pH 7.4 (0.2 M KH2PO4/0.2 M K2HPO4 in water), peptide 50 and 100 μM, 40 h",exponential time-dependent increase of the formation of aggregates
same,delay before formation of aggregates (ThT fluorescence),"[6]; pH 9.1 (0.2 M glycine NaOH in water), peptide 10 and 25 μM",18 h
same,formation of aggregates (ThT fluorescence),"[6]; pH 9.1 (0.2 M glycine NaOH in water), peptide 50 and 100 μM, 40 h",exponential time-dependent increase of the formation of aggregates
same,Kd,GPER,micromolar range
same,effect on cell viability,[7],able to reduce the viability
same,effect on cell viability,[8],inactive
NSLALSLT [peptide 1],solubility for biological assays,[9],insufficiently soluble; also recorded: poor solubility
same,length of stacked fibrils (TEM),[1]; [11],1.5 μm
same,thickness of stacked fibrils (TEM),[1]; [11],20 nm
same,decrease of the soluble pool (CD),[10],70%
same,"formation of aggregates (ThT fluorescence), fragments","[6]; pH 9.1 (glycine NaOH 0.2 M), peptide 100 μM, 40 h, ERα17p as reference",exponential increase of the fluorescence signal
"CN1CC[C@]23c4c5ccc(O)c4O[C@H]2[C@@H](O)C=C[C@H]3[C@H]1C5 [morphine, reference compound]",50% paw withdrawal threshold (PWT),"[4]; 1 mg/kg, positive control, time not stated",0.672 ± 0.041 g

# — paper PMC9873809, “Identification of a human estrogen receptor α tetrapeptidic fragment with dual antiproliferative and anti-nociceptive action” (Scientific Reports, 2023)
